# Reference: patent US3952050A, “Cyclopent [a] indene compounds” (Allen & Hanburys Limited, priority 1972, dated 1976)
# Where a name gives a salt, the structure may show the parent alone.
# Key:
# Assay type in all cases: in vivo
# [1] = Phenylquinone Writhing test (analgetic action); details: po
# Source text: (§1) Particularly preferred meanings for the groups R1 and R2 are hydrogen C1-4 alkyl, in particular methyl, or benzyl. Particularly preferred meanings for R3 are hydrogen or C1-4alkyl in particular methyl. Particularly preferred meanings for R5 and R6 are hydrogen, C1-4 alkyl substituted by C1-4 alkylamino or by C1-4 dialkylamino or by phenyl or by 4-fluorobenzoyl or in which the groups together with the adjacent nitrogen atom form a morpholino or piperidino moiety; another preferred group for R5 or R6 is carbamoyl (--CONH2). Specific preferred compounds and salts are those the preparation of which is described in the Examples. The compounds of the invention have marked analgetic activity and are devoid of respiratory depressant action. […] These characteristics are often associated with non-narcotic analgetics in man. For example, in Table I, the compound 1,2,3,3aα,8,8aα-hexahydro-N-methylcyclopent[a]inden-1α-amine, maleate (AH 9197) and the diastero-isomer 1,2,3,3aα,-8,8aα-hexahydro-N-methylcyclopent[a]inden-1β-amine maleate (AH 8538) are compared with codeine in standard pharmacological tests for evaluating analgetic action. The N-ethyl analogue of AH 9197 (N-ethyl-1,2,3,3aα,8,8aα-hexahydrocyclopent[a]inden-1α-amine) maleate (AH 9903) is also included.
# [2] = Hot plate test (analgetic action)
# Source text: as §1
# [3] = system: Dog Tooth-pulp; test: Dog Tooth-pulp Stimulation test (analgetic action); details: Canis lupus familiaris, po, read-out: Minimum effective dose, Dog Tooth-pulp Stimulation
# Source text: as §1
SMILES,ED50 [1] [mg/kg],ED50 ([2]; po) [mg/kg],ED50 ([2]; sc) [mg/kg],minimal effective dose [3] [mg/kg]
"CN[C@H]1CC[C@@H]2c3ccccc3C[C@H]12 (relative stereo) [Ex. 1, 1,2,3,3aα,8,8aα-Hexahydro-N-methylcyclopent[a]inden-1α-amine, maleate]",7.4,10,0.44,3.7
"COc1ccc2c3c1O[C@H]1[C@@H](O)C=C[C@H]4[C@@H](C2)N(C)CC[C@@]341 [Codeine, codeine, reference compound]",5.8,15.5,11.8,3.3
"CCN[C@H]1CC[C@@H]2c3ccccc3C[C@H]12 (relative stereo) [Ex. 2, N-Ethyl-1,2,3,3aα,8,8aα-hexahydrocyclopent[a]inden-1α-amine, maleate]",4.6,9.5,2.2,< 5
"CN[C@@H]1CC[C@@H]2c3ccccc3C[C@@H]21 (relative stereo) [Ex. 3, 1,2,3,3aα,8,8aα -Hexahydro-N-methylcyclopent[a]inden-1β-amine, maleate]",11.9,–,15,5
